Patent US20260224555A1, “NEW PHENYLQUINOLONE COMPOUND HAVING ANTIBACTERIAL AND ANTI-CANCER FUNCTIONS AND PREPARATION THEREOF” (AlphaMol Science Ltd (Shanghai), priority 2022, published 2026)
Read-outs that look alike come from different tables or passages of the source.

Assays:
Format in all cases: cell-based
[1] = test system: human prostate cancer cell PC-3; experiment: In vitro anticancer activity test (MTT cell proliferation)
Protocol: (§1) The anticancer activity of the compounds was tested using an in vitro cancer cell tests. The specific test method is as follows:
(§2) 1. Cell recovery and culture method: the cryovial was taken out from the liquid nitrogen container firstly, soaked directly in 37° C. warm water, and shaked from time to time to let it thaw as soon as possible. Then, the cryovial was transferred to a clean bench, and the lid was open. The cell suspension was taken into a centrifuge tube using a rubber-tipped dropper and more than 10 times the culture medium was added, mixed well, and centrifuged at 50 g for 5 minutes. Then, the supernatant was discarded, complete culture medium containing 10% fetal bovine serum was added to resuspend the cells, the cells was counted, the cell density was adjusted, and then inoculated into a culture bottle. The culture bottle was placed in a cell culture incubator at 5% CO2 and 37° C. The complete culture medium was replaced once the next day and the culture was continued.
(§3) 2. Cell passaging method: adherent cells in the logarithmic growth phase were placed in a clean bench, the original culture medium was discarded, and washed three times with 1×PBS. An appropriate amount of 0.25% trypsin digestion solution was added to moisten the cells, and then the trypsin solution was aspirated. The cells were placed in a cell culture incubator at 5% CO2 and 37° C. for digestion for a suitable time, and observed under a microscope. When 90% of the cells become round, the cells were moved immediately to the clean bench and complete culture medium was added to terminate digestion. Then, the cells were dislodged by pipetting up and down with a rubber-tipped dropper to single cells. The cells were counted, and the cell density was adjusted. The cells were inoculated into a suitable culture bottle or dish, added enough complete culture medium, and placed in a cell culture incubator at 5% CO2 and 37° C. for static culture.
(§4) For suspension cells in the logarithmic phase, the original culture medium was directly centrifuged at 50 g for 5 minutes, the supernatant was discarded, and the cells were washed once with PBS and centrifuged. After discarding the supernatant, the complete culture medium was added and the cells were dispersed using a rubber-tipped dropper. The cells are counted, and the cell density was adjusted. The cells were inoculated into appropriate culture bottles or culture dishes, and sufficient complete culture medium was added, and the cells were cultured in a cell culture incubator at 5% CO2 and 37° C.
(§5) 3. Cell proliferation assay: cells in good state in logarithmic phase were taken and appropriate amount of the cells was inoculated into 96-well plates according to the cell passage treatment method, with each well containing 180 μL complete medium. After the cells growth was recovered and the number of cells in each well is 5000±500, a drug was added for treatment.
(§6) After drug treatment during the experimental time, MTT solution with a final concentration of 0.5 mg/mL was added to each well, and placed in a cell culture incubator at 5% CO2 and 37° C. to allow a fully reaction of MTT with cells. After 4 hours, the solution in the 96-well plate was discarded, 100 µL of DMSO was added, and shaked to dissolve the formazan precipitated at the bottom of the plate, and the absorbance value of samples was detected at a wavelength of 570 nm using a microplate reader. Calculation method of cell viability rate: […]

[2] = test system: human acute myeloid leukemia cell MOLM-13; experiment: as above
Protocol: as §1, §2, §3, §4, §5, §6

[3] = test system: human non-small cell lung cancer cell A549; experiment: as above
Protocol: as §1, §2, §3, §4, §5, §6

[4] = test system: human renal cancer cell OS-RC-2; experiment: as above
Protocol: as §1, §2, §3, §4, §5, §6

[5] = test system: human breast cancer cell MFM223; experiment: as above; details: MFM-223
Protocol: as §1, §2, §3, §4, §5, §6

[6] = test system: human acute monocytic leukemia cell THP-1; experiment: as above
Protocol: as §1, §2, §3, §4, §5, §6

[7] = test system: human colon cancer cell HCT 116; experiment: as above
Protocol: as §1, §2, §3, §4, §5, §6

[8] = test system: human liver cancer cell BLE-7402; experiment: as above
Protocol: as §1, §2, §3, §4, §5, §6

[9] = test system: pancreatic cancer cell PNAC-1; experiment: as above
Protocol: as §1, §2, §3, §4, §5, §6

[10] = test system: human Burkitt's lymphoma cell Raji; experiment: as above
Protocol: as §1, §2, §3, §4, §5, §6

[11] = test system: human liver cancer cell HepG2; experiment: as above
Protocol: as §1, §2, §3, §4, §5, §6

[12] = test system: human gastric cancer cell MGC-803; experiment: as above
Protocol: as §1, §2, §3, §4, §5, §6

human glioma cell SNB-19 = experiment: as above
Protocol: as §1, §2, §3, §4, §5, §6

[13] = test system: human malignant melanoma cell A375; experiment: as above; details: A-375
Protocol: as §1, §2, §3, §4, §5, §6

[14] = test system: human osteosarcoma cell U2-OS; experiment: as above; details: U2OS
Protocol: as §1, §2, §3, §4, §5, §6

S. aureus ATCC 43300 = experiment: In vitro antibacterial activity assay (MIC, broth dilution); details: Staphylococcus aureus, ATCC43300
Source text: (§7) The method used to indicate the activity of the compounds in this example is to record the minimum inhibitory concentration (MIC) of the compounds against bacteria. The specific experimental method is as follows:
(§8) 1. The bacterial liquid cultured from a single colony was taken, and diluted into autoclaved CAMHB broth in a ratio of 1:1000, and mixed well.
(§9) 2. The prepared drug solution was filtered through a sterile 0.22 µm syringe filter and placed in a sterile EP tube for later use.
(§10) 3. A 96-well plate was taken, and 20 µL of drug solution ([…]) was added to each well in the first column of the 96-well plate. Then, 180 µL of diluted bacterial liquid was added and mixed well (Perform 3 replicate rows for each drug).
(§11) The same process was performed for the hydrochloride drug.
(§12) 4. 100 μL of diluted bacterial liquid was added to each well in the remaining 11 columns of the 96-well plate. Drugs are the same as above.
(§13) 5. Serial dilution: 100 μL of liquid was taken from the first column to the second column, mixed well, then 100 μL of liquid was taken from the second column to the third column, mixed well, and so on, sequentially diluting down to the last column (column 12). After mixing column 12 well, 100 μL of liquid thereof was discarded. The drug concentration in each well was decreased by two-fold serially (the concentration in the first well is 40 μg/mL).
(§14) 6. Blank CAMHB broth without added bacteria liquid was added to 3 blank wells in the 96-well plate, as negative control.
(§15) 7. The diluted bacterial liquid was added to 3 blank wells in the 96-well plate, as positive control.
(§16) 8. Incubated at 37° C. for 16 hours.
(§17) 9. Results reading: the minimum inhibitory concentration is the minimum drug concentration at which no bacterial growth is visible to the naked eye and without turbidity.

E. coli ATCC 25922 = experiment: as above; details: Escherichia coli, ATCC25922
Source text: as §7, §8, §9, §10, §11, §12, §13, §14, §15, §16, §17

Hela = experiment: In vitro anticancer activity test (MTT cell proliferation); details: Homo sapiens

O=C(CCl)Nc1ncc(-c2cc3c(cc2F)c(=O)c(C(=O)O)cn3C2CC2)cc1F [Example 135]
IC50 [1]: 1 to 10 µM | IC50 [2]: 1 to 10 µM | IC50 [3]: 1 to 10 µM | IC50 [4]: 1 to 10 µM | IC50 [5]: 1 to 10 µM | IC50 [6]: 1 to 10 µM | IC50 [7]: 1 to 10 µM | IC50 [8]: 1 to 10 µM | IC50 [9]: 1 to 10 µM | IC50 [10]: 1 to 10 µM | IC50 [11]: 1 to 10 µM | IC50 [12]: 1 to 10 µM | IC50 (human glioma cell SNB-19): 1 to 10 µM | IC50 [13]: 1 to 10 µM | IC50 [14]: 1 to 10 µM | MIC (S. aureus ATCC 43300; Table 3, read-out: MIC S. aureus ATCC 43300): ≤ 0.1 µg/mL | MIC (S. aureus ATCC 43300; Table 4, read-out: S. aureus ATCC 43300 MIC): ≤ 1 µg/mL | MIC (E. coli ATCC 25922; Table 3, read-out: MIC E. coli ATCC 25922): ≤ 0.1 µg/mL | MIC (E. coli ATCC 25922; Table 4, read-out: E. coli ATCC 25922 MIC): ≤ 1 µg/mL | IC50 (Hela): 1 to 10 µM
